Article PMC5278949 (The Journal of organic chemistry, 2016)

Target: kappa opioid receptor (KOR) (Homo sapiens, UniProt P41145)
Assay: GTPγS assay, antagonism of U69, […], concentration-response
Format: biochemical

Chain of kappa opioid receptor (KOR) (P41145 whole entry): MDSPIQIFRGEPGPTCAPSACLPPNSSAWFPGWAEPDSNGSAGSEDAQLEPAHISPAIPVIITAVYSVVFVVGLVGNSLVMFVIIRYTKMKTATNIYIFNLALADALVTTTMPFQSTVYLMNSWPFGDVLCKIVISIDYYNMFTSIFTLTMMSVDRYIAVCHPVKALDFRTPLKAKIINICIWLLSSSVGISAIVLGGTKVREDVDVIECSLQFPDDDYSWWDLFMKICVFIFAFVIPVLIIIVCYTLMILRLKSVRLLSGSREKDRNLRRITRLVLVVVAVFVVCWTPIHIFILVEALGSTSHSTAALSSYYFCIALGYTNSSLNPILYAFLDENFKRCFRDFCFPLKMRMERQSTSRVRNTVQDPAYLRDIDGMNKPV

IC50 [µM]	Compound
0.906	COc1ccc(N2CCN(CCCNC(=O)CN3C(=O)C4CCCCN4c4cc(C)cnc43)CC2)cc1 (racemic) [compound 28, N-(3-(4-(4-Methoxyphenyl)piperazin-1-yl)propyl)-2-(2-methyl-6-oxo-6,6a,7,8,9,10-hexahydro-5H-dipyrido[1,2-a:2′,3′-e]pyrazin-5-yl)acetamide]
2.82	COc1ccc(N2CCN(CCCNC(=O)CN3C(=O)[C@@H]4CCCN4c4c(C)ccnc43)CC2)cc1 [compound 26, (S)-N-(3-(4-(4-Methoxyphenyl)piperazin-1-yl)propyl)-2-(1-methyl-6-oxo-6a,7,8,9-tetrahydropyrido[2,3-e]pyrrolo[1,2-a]pyrazin-5(6H)-yl)acetamide]
2.62	COc1ccc(N2CCN(CCCNC(=O)CN3C(=O)[C@@H]4CCCN4c4cc(C)cnc43)CC2)cc1 [compound 27, (S)-N-(3-(4-(4-Methoxyphenyl)piperazin-1-yl)propyl)-2-(2-methyl-6-oxo-6a,7,8,9-tetrahydropyrido[2,3-e]pyrrolo[1,2-a]pyrazin-5(6H)-yl)acetamide]
0.433	COc1ccc(N2CCN(CCCNC(=O)CN3C(=O)[C@H](CC(C)C)Nc4cc(C)cnc43)CC2)cc1 [compound 29, (S)-2-(2-Isobutyl-7-methyl-3-oxo-2,3-dihydropyrido[2,3-b]-pyrazin-4(1H)-yl)-N-(3-(4-(4-methoxyphenyl)piperazin-1-yl)propyl)-acetamide]
